Test results from US6613317B1, “Volatile attractants for diabrotica species” (priority 1988, dated 2003).
Marks after values point to notes of the source that are not given here. Each block holds one compound with its values, some of them ahead of it.

Tests used:
rootworm beetles = assay: Small-plot comparison of insecticides in TEX×PEP dry ground bait; format: in vivo; conditions: 0.01-0.1% (wt/wt); 1- to 3.3-m2 plots of corn and cucurbits
Protocol: Bait applications to evaluate various insecticides. The relative effectiveness of a variety of insecticides incorporated at 0.01-0.1% (wt/wt) in TEX×PEP dry ground bait was compared. The following insecticides were tested: bendiocarb, carbaryl, carbofuran, methomyl, oxamyl; dimethoate, malathion, isofenphos, phospholan, and mephospholan; and permethrin, cypermethrin, fenvalerate, and flucythrinate. […] The overall greater effectiveness of the carbamates in these small-plot tests is attributed to their rapid kill and lack of repellent effect. The pyrethroids were somewhat repellent to the rootworm beetles.

[1] = system: western corn rootworm (WCR) adults; assay: Sticky trap attraction in corn, estragole analogues (Example 3); format: in vivo, Diabrotica virgifera virgifera; conditions: 100 mg per trap
Summary of the method: (§1)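 Cotton wicks dosed with 100 mg or 100 μL attractant per trap on TangleTrap-coated cartons, four replicates 10 m apart on 1 m posts at field edges of hybrid or sweet corn. Mean beetles caught after ~24 h; log-transformed ANOVA with Duncan's test, P=0.05.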

[2] = system: western corn rootworm (WCR) adults; conditions: cited from earlier work
D. barberi [3] = assay: Sticky trap attraction in prairie habitat, Trelease Woods (Example 2); format: in vivo, Diabrotica barberi; conditions: 100 mg per trap, n = 4
Protocol: (§2) The candidate lures in all experiments were purchased commercially and exceeded 98% purity. The test chemicals were applied by capillary micropipettes to cotton dental wicks which were attached to the tops of 1.0 liter cylindrical paper cartons covered with TangleTrap™ (Tanglefoot Co., Grand Rapids, Mich.). The sticky trap techniques used were as described in Example 1. Cinnamyl alcohol and para-methoxycinnamaldehyde, which are solids, were dissolved in glass-distilled acetone prior to dosing the cotton wicks. […]. Control traps had untreated cotton wicks. Four replicates of treated and untreated traps were randomly positioned 10 meters apart on top of 1 m high posts along the border of a eight foot wide strip cut through the middle of a 4.05 ha relict prairie at Trelease Woods (ca. two miles northeast of Urbana, Ill.). The field consisted primarily of Andropogon gerardii Vitman (big bluestem) and a variety of composites. The tests were conducted in mid-August of two years and were timed to coincide with the presence of D. cristata and D. barberi adults in the flower heads of Canada thistle (Carduus arvensis Robson). In the second year, several new attractants of D. v. virgifera and D. barberi were tested in Trelease Woods and along the edge of a 0.8 ha field of hybrid corn located at the Pomology South Farms, Urbana, Ill. Attraction of Diabrotica species to the various lures was measured by the mean number of beetles caught after 24-h. On one date in late August of the first year, D. cristata and D. barberi were removed from the traps and sexed in the laboratory. The significance of treatments in all tests was determined by an analysis of variance and the individual means were separated by Duncan's multiple range test (Statistical Package for Social Science, Nie, et al., SPSS: statistical package for the social sciences, 2nd ed. McGraw-Hill, New York (1975). Data were logarithmically transformed for statistical analysis and the means and standard deviations are presented for the untransformed data.

D. cristata = assay: as above; format: in vivo, Diabrotica cristata; conditions: 100 mg per trap, n = 4
Protocol: as §2

D. v. virgifera [4] = assay: as above; format: in vivo, Diabrotica virgifera virgifera; conditions: 100 mg per trap, n = 4
Protocol: as §2

D. u. howardi [5] = assay: as above; format: in vivo, Diabrotica undecimpunctata howardi; conditions: 100 mg per trap, n = 4
Protocol: as §2

D. barberi [6] = assay: Sticky trap attraction along hybrid corn, Pomology South Farms (Example 2); format: in vivo, Diabrotica barberi; conditions: 100 mg per trap, n = 4
Protocol: (§3) The candidate lures in all experiments were purchased commercially and exceeded 98% purity. The test chemicals were applied by capillary micropipettes to cotton dental wicks which were attached to the tops of 1.0 liter cylindrical paper cartons covered with TangleTrap™ (Tanglefoot Co., Grand Rapids, Mich.). The sticky trap techniques used were as described in Example 1. Cinnamyl alcohol and para-methoxycinnamaldehyde, which are solids, were dissolved in glass-distilled acetone prior to dosing the cotton wicks. All treatments were applied at a dosage of 100 mg per trap. 1,2,4-trimethoxybenzene, indole, and trans-cinnamaldehyde were mixed in a ratio of 1:1:1, by weight, immediately prior to dosing the cotton wicks. Control traps had untreated cotton wicks. Four replicates of treated and untreated traps were randomly positioned 10 meters apart on top of 1 m high posts along the border of a eight foot wide strip cut through the middle of a 4.05 ha relict prairie at Trelease Woods (ca. two miles northeast of Urbana, Ill.). The field consisted primarily of Andropogon gerardii Vitman (big bluestem) and a variety of composites. The tests were conducted in mid-August of two years and were timed to coincide with the presence of D. cristata and D. barberi adults in the flower heads of Canada thistle (Carduus arvensis Robson). In the second year, several new attractants of D. v. virgifera and D. barberi were tested in Trelease Woods and along the edge of a 0.8 ha field of hybrid corn located at the Pomology South Farms, Urbana, Ill. Attraction of Diabrotica species to the various lures was measured by the mean number of beetles caught after 24-h. On one date in late August of the first year, D. cristata and D. barberi were removed from the traps and sexed in the laboratory. The significance of treatments in all tests was determined by an analysis of variance and the individual means were separated by Duncan's multiple range test (Statistical Package for Social Science, Nie, et al., SPSS: statistical package for the social sciences, 2nd ed. McGraw-Hill, New York (1975). Data were logarithmically transformed for statistical analysis and the means and standard deviations are presented for the untransformed data.

D. v. virgifera [7] = assay: as above; format: in vivo, Diabrotica virgifera virgifera; conditions: 100 mg per trap, n = 4
Protocol: as §3

D. u. howardi [8] = assay: as above; format: in vivo, Diabrotica undecimpunctata howardi; conditions: 100 mg per trap, n = 4
Protocol: as §3

NCR = assay: Limit of response rating of squash blossom volatiles on sticky traps (Example 5); format: in vivo, Diabrotica barberi; conditions: 24 hour; four replicate traps; 0.01 mg to 200 mg
Summary of the method: (§4)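 Adult Diabrotica beetles were tested against cylindrical sticky traps baited with cotton wicks holding 0.01 mg to 200 mg of individual Cucurbita maxima blossom volatiles. Response limit rated by trap catch.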

SCR = assay: as above; format: in vivo, Diabrotica undecimpunctata howardi; conditions: 24 hour; four replicate traps; 0.01 mg to 200 mg
Summary of the method: as §4

WCR = assay: as above; format: in vivo, Diabrotica virgifera virgifera; conditions: 24 hour; for Attractant Rating WCR (by limit of response): four replicate traps, 0.01 mg to 200 mg; for LR for WCR: sticky traps
Summary of the method: as §4

[9] = system: southern corn rootworm (SCR) adults; assay: Sticky trap attraction in sweet corn plots (Example 1); format: in vivo, Diabrotica undecimpunctata howardi; conditions: for Mean number of SCR per trap (±standard deviation): n = 4
Summary of the method: (§5)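 Field trapping in sweet-corn plots beside a Blue Hubbard squash trap crop; lures on mineral-oil-impregnated cotton wicks atop sticky paper-carton traps on 1-m posts, 4 replicates in randomized complete blocks. Beetles counted after 24 h; VIPAE/VIP/TIC mixtures and single components at 1–300 mg per trap, ANOVA/Duncan at P=0.05.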

[10] = system: western corn rootworm (WCR) adults; assay: as above; format: in vivo, Diabrotica virgifera virgifera; conditions: for Mean number of WCR per trap (±standard deviation): n = 4
Summary of the method: as §5

[11] = system: southern corn rootworm (SCR) adults; assay: Sticky trap attraction in corn, estragole analogues (Example 3); format: in vivo, Diabrotica undecimpunctata howardi; conditions: September 11; 100 mg per trap; n = 4
Summary of the method: as §1

[12] = August 4, second year, each compound 20 mg per trap
[13] = August 7, second year, each compound 20 mg per trap
[14] = August first year, South Farms, 24 h, single compounds 100 mg per trap, mixture 20 mg of each component
[15] = August first year, single compounds 100 mg per trap, mixture 20 mg each component

Structure (SMILES): CCOP(=S)(NC(C)C)Oc1ccccc1C(=O)OC(C)C (stereo not shown) [Isofenphos, isofenphos]
relative effectiveness of insecticides in TEX×PEP dry ground bait (rootworm beetles): most effective of the organophosphorus insecticides

melting point: 34 to 35 °C
Structure (SMILES): CCOc1ccc(OC)cc1 [VI, 4-methoxyphenyl ethyl ether]
Relative percent activity as compared with the highest mean in the column (WCR) ([1]; August 29): 8%
Mean number of WCR per sticky trap (±standard deviation) after 24 hours ([1]; August 29, n = 4): 12.0 ± 1.8 per sticky trap
Relative percent activity as compared with the highest mean in the column (WCR) ([1]; July 30): 39%
Mean number of WCR per sticky trap (±standard deviation) after 24 hours ([1]; July 30, n = 4): 32.0 ± 8.4 per sticky trap

Structure (SMILES): CNC(=O)Oc1cccc2c1OC(C)(C)O2 [bendicarb, bendiocarb]
relative effectiveness of insecticides in TEX×PEP dry ground bait (rootworm beetles): more effective than the pyrethroids

Structure (SMILES): CCC(=O)OC(C)CCCCCC(C)CC (stereo not shown) [8-methyl-2-decylpropanoate]
amount per sticky trap that attracted male WCR ([2]; per sticky trap): 5 µg

Structure (SMILES): CNC(=O)Oc1cccc2ccccc12 [carbaryl]
relative effectiveness of insecticides in TEX×PEP dry ground bait (rootworm beetles): more effective than the pyrethroids

Structure (SMILES): CC(=O)/C=C/C1=C(C)CCCC1(C)C [β-ionone]
Mean number of D. barberi per day (±standard deviation) (D. barberi [3]; August 11, 1987): 0.3 ± 0.5^ab per day
Mean number of D. barberi per day (±standard deviation) (D. barberi [3]; August 14, 1987): 0.3 ± 0.5^a per day
Mean number of D. cristata per day (±standard deviation) (D. cristata; August 11, 1987): 17.3 ± 8.7^b per day
Mean number of D. cristata per day (±standard deviation) (D. cristata; August 14, 1987): 5.3 ± 2.2^b per day
Mean number of D. v. virgifera per day (±standard deviation) (D. v. virgifera [4]; August 11, 1987): 4.0 ± 0.8^b per day
Mean number of D. v. virgifera per day (±standard deviation) (D. v. virgifera [4]; August 14, 1987): 2.3 ± 1.3^b per day
Mean number of D. u. howardi per day (±standard deviation) (D. u. howardi [5]; August 11, 1987): 0.3 ± 0.5^a per day
Mean number of D. u. howardi per day (±standard deviation) (D. u. howardi [5]; August 14, 1987): 0.0^a per day
Mean number of D. barberi per stick trap per day (±standard deviation) in corn (D. barberi [6]; August 7): 0.5 ± 0.7^a per stick trap per day
Mean number of D. barberi per stick trap per day (±standard deviation) in corn (D. barberi [6]; August 18): 1.5 ± 1.0^a per stick trap per day
Mean number of D. v. virgifera per stick trap per day (±standard deviation) in corn (D. v. virgifera [7]; August 7): 263.5 ± 94.6^cd per stick trap per day
Mean number of D. v. virgifera per stick trap per day (±standard deviation) in corn (D. v. virgifera [7]; August 18): 89.0 ± 18.2^b per stick trap per day
Mean number of D. u. howardi per stick trap per day (±standard deviation) in corn (D. u. howardi [8]; August 7): 1.8 ± 2.4^a per stick trap per day
Mean number of D. u. howardi per stick trap per day (±standard deviation) in corn (D. u. howardi [8]; August 18): 0.5 ± 0.7^a per stick trap per day
Attractant Rating NCR (by limit of response) (NCR): 0 (200)
Attractant Rating SCR (by limit of response) (SCR): 0 (200)
Attractant Rating WCR (by limit of response) (WCR): +4 (1-3)
LR for WCR (WCR): 3 mg

Structure (SMILES): CNC(=O)Oc1cccc2c1OC(C)(C)C2 [carbofuran]
relative effectiveness of insecticides in TEX×PEP dry ground bait (rootworm beetles): more effective than the pyrethroids

Structure (SMILES): c1ccc2[nH]ccc2c1 [Indole]
relative percent activity (SCR) as compared with the highest mean value for the test date [9, 12]: 4%
Mean number of SCR per trap (±standard deviation) [9, 12]: 1.5 ± 1.0 per trap
relative percent activity (SCR) as compared with the highest mean value for the test date [9, 13]: 6%
Mean number of SCR per trap (±standard deviation) [9, 13]: 2.8 ± 1.3 per trap
Mean number of SCR per trap (±standard deviation) [9, 14]: 2.3 ± 2.1 per trap
relative percent activity of the mean SCR trap catch as compared with the highest mean value in the column [9, 15]: 11%
relative percent activity (WCR) as compared with the highest mean value for the test date [10, 12]: 100%
Mean number of WCR per trap (±standard deviation) [10, 12]: 51.3 ± 24.4 per trap
relative percent activity (WCR) as compared with the highest mean value for the test date [10, 13]: 87%
Mean number of WCR per trap (±standard deviation) [10, 13]: 27.5 ± 11.8 per trap
Mean number of WCR per trap (±standard deviation) [10, 14]: 3.3 ± 2.1 per trap
relative percent activity of the mean WCR trap catch as compared with the highest mean value in the column [10, 15]: 49%
Attractant Rating NCR (by limit of response) (NCR): 0 (200)
Attractant Rating SCR (by limit of response) (SCR): 0 (200)
Attractant Rating WCR (by limit of response) (WCR): +4 (1-3)
LR for WCR (WCR): 1 mg
LR values for WCR attraction (literature) ([2]; in vivo): 1 mg

melting point: 87 to 89 °C
Structure (SMILES): COC(=O)C=Cc1ccc(OC)cc1 [XIV, 4-methoxycinnamic acid methyl ester]
Mean number of WCR adults per sticky trap (±standard deviation) after 24 hours ([1]; September 11, n = 4): 1.0 ± 1.1^a per sticky trap
Mean number of SCR adults per sticky trap (±standard deviation) after 24 hours [11]: 0.7 ± 1.5^a per sticky trap

Structure (SMILES): CNC(=O)ON=C(C)SC [methomyl]
relative effectiveness of insecticides in TEX×PEP dry ground bait (rootworm beetles): more effective than the pyrethroids
